# Test results published in patent US20120252721A1 (priority 2011, published 2012).
# Where two headings read alike, the source gives them in different places.
# Assays:
# [1] = system: HCV genotype 1a H77 strain subgenomic luciferase replicon (H1a-luc); experiment: Luciferase replicon assay, genotype 1a; assay type: cell-based; conditions: Hepatitis C virus, read-out: EC50 1a
# Summary of the method: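 Huh-7 cells carrying H1a-luc subgenomic replicon (luciferase-neomycin phosphotransferase fusion), seeded at 1×10^4 cells/well, dosed 3 h later with ten 5-fold compound dilutions for 72 h at 37 °C. Replication read as luciferase luminescence; replicon-free Huh-7 cells as negative control. EC50 from dose-response curve fits.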
# in vitro = assay type: cell-based; conditions: human; GS4.1 cells, cellular viability
# Protocol: For cytotoxicity evaluation, GS4.1 cells were treated with compounds as described above and cellular viability was monitored using the Cell Titer 96 AQeous One Solution Cell Proliferation Assay (Promega). CC50 values were determined from the % cytotoxicity versus concentration data with Tecan Magellan software as described above.
# [2] = system: 1a-luc Y93N (HCV genotype 1a replicon); experiment: Luciferase replicon transient transfection assay, 1a-luc Y93N; assay type: cell-based, hepatitis C virus; conditions: for EC50: Hepatitis C virus, 96 h, Huh7.5 cells, 4 days
# Protocol: (§1) The luciferase replicon transient transfection assay measures the ability of a test compound to inhibit the replication of a transiently-transfected HCV luciferase-bearing wild-type or mutant replicon in cured human hepatoma cells (Huh7.5). The inhibition of HCV replication was measured by quantification of luciferase protein expression. This assay has been validated using a panel of genotype 1a and 1b replicons bearing mutations known to be associated with resistance to BMS-790052. Briefly, subconfluent Huh7.5 cells were electroporated with 10 μg of wild-type or mutant luciferase-bearing HCV replicon RNA. The cells were then seeded in 96-well opaque white plates at 3×10^4 cells/well in 150 μL/well and incubated for 4 hrs at 37° C./5% CO2. Ten 1:5 serial dilutions of each test compound were made in media (DMEM containing glucose, L-glutamine and sodium pyruvate, 10% fetal bovine serum, 100 IU/mL penicillin, 100 μg/mL streptomycin, 2 mM GlutaMAX, and 1×MEM non-essential amino acids (Mediatech, Inc. and Invitrogen Corp.)) at concentrations that were 4× higher than the final concentrations to be tested and 50 μL/well was added to the transfected cells. Untreated, mock-transfected cells served as a negative control of luciferase expression. The plates were incubated at 37° C./5% CO2 for 4 days whereupon the media was removed and 50 μL of ONE-glo luciferase substrate (Promega) was added to each well. The plates were agitated on a rotating platform at room temperature for 3 min and read in a Victor^3V microplate reader (Perkin-Elmer) using a 700 nm cut-off filter with a 1 sec read time. EC50 values were calculated from dose response curves from the resulting best-fit equations determined by Microsoft Excel and XLfit 4.1 software.
# [3] = system: ZS11-luc L28T (HCV genotype 1b replicon); experiment: Luciferase replicon transient transfection assay, ZS11-luc L28T; assay type: cell-based, hepatitis C virus; conditions: for EC50: Hepatitis C virus, 96 h, Huh7.5 cells, 4 days
# Protocol: as §1
# HCV genotype 5a = experiment: Replicon assay, genotype 5a (method not described); assay type: cell-based; conditions: Hepatitis C virus
# [4] = system: 1a-luc M28T (HCV genotype 1a replicon); experiment: Luciferase replicon transient transfection assay, 1a-luc M28T; assay type: cell-based, hepatitis C virus; conditions: for EC50: Hepatitis C virus, 96 h, Huh7.5 cells, 4 days
# Protocol: as §1
# [5] = system: ZS11-luc replicon, NS3-D168V; experiment: Luciferase replicon transient transfection assay, NS3-D168V; assay type: cell-based, hepatitis C virus; conditions: for EC50: Hepatitis C virus
# Protocol: as §1
# (§2) To determine the replication capacity of each mutant relative to the wild-type parental replicon, transfected cells were plated on two plates and were not treated with compound. Luciferase activity was measured at time points of 4 hrs and 4 days after plating for each replicon. Replication capacity was calculated by dividing the day 4 CPS by the 4 hour CPS for each replicon and determining the percentage present for each mutant replicon relative to wild-type replicon values. The NS3, NS4B, and NS5B mutants were prepared and tested according to the methods described herein.
# [6] = system: 1a-luc Q30K (HCV genotype 1a replicon); experiment: Luciferase replicon transient transfection assay, 1a-luc Q30K; assay type: cell-based, hepatitis C virus; conditions: for EC50: Hepatitis C virus, 96 h, Huh7.5 cells, 4 days
# Protocol: as §1
# [7] = system: HCV genotype 1a replicon, NS5A K24E; experiment: Luciferase replicon transient transfection assay, genotype 1a NS5A K24E; assay type: cell-based, hepatitis C virus; conditions: for EC50: Hepatitis C virus, genotype 1a, HCV region NS5A, mutation K24E
# Protocol: as §1
# [8] = system: 1a-luc Q30R (HCV genotype 1a replicon); experiment: Luciferase replicon transient transfection assay, 1a-luc Q30R; assay type: cell-based, hepatitis C virus; conditions: for EC50: Hepatitis C virus, 96 h, Huh7.5 cells, 4 days
# Protocol: as §1
# [9] = system: 1a-luc P32L (HCV genotype 1a replicon); experiment: Luciferase replicon transient transfection assay, 1a-luc P32L; assay type: cell-based, hepatitis C virus; conditions: for EC50: Hepatitis C virus, 96 h, Huh7.5 cells, 4 days
# Protocol: as §1
# [10] = system: HCV genotype 1a replicon, NS3 T260A; experiment: Luciferase replicon transient transfection assay, genotype 1a NS3 T260A; assay type: cell-based, hepatitis C virus; conditions: for EC50: Hepatitis C virus, genotype 1a, HCV region NS3, mutation T260A
# Protocol: as §1, §2
# [11] = system: ZS11-luc replicon, NS3-R155K; experiment: Luciferase replicon transient transfection assay, NS3-R155K; assay type: cell-based, hepatitis C virus; conditions: for EC50: Hepatitis C virus
# Protocol: as §1, §2
# [12] = system: 1a-luc L31M (HCV genotype 1a replicon); experiment: Luciferase replicon transient transfection assay, 1a-luc L31M; assay type: cell-based, hepatitis C virus; conditions: for EC50: Hepatitis C virus, 96 h, Huh7.5 cells, 4 days
# Protocol: as §1
Structure (SMILES),CC50 (in vitro),Ratio [2],EC50 [2],EC50 [1],Ratio [3],EC50 [3],EC50 (HCV genotype 5a),Ratio [4],EC50 [4],EC50 [5],Ratio [5],Ratio [6],EC50 [6],EC50 [7],Ratio [7],Ratio [8],EC50 [8],Ratio [9],EC50 [9],EC50 [10],further results
"COC(=O)N[C@H](C(=O)N1CCC[C@H]1c1ncc(-c2ccc(-c3csc4c(-c5cnc([C@@H]6CCCN6C(=O)[C@@H](NC(=O)OC)C(C)C)[nH]5)csc34)cc2)[nH]1)C(C)C [Compound A15, [(S)-1-((S)-2-{4-[4-(6-{2-[(S)-1-((S)-2-methoxycarbonylamino-3-methyl-butyryl)-pyrrolidin-2-yl]-3H-imidazol-4-yl}-thieno[3,2-b]thiophen-3-yl)-phenyl]-1H-imidazol-2-yl}-pyrrolidine-1-carbonyl)-2-methyl-propyl]-carbamic acid methyl ester]",10000 to 75000 nM,,,,,,,,,,,,,,,,,,,,EC50 ([1]; genotype 1a): < 0.1 nM
"COC(=O)N[C@H](C(=O)N1CCC[C@H]1c1ncc(-c2ccc(-c3csc4c(-c5cnc([C@@H]6CCCN6C(=O)[C@H](NC(=O)OC(C)(C)C)c6ccccc6)[nH]5)csc34)cc2)[nH]1)C(C)C [Compound A111, [(S)-1-((S)-2-{4-[4-(6-{(S)-2-[1-((R)-2-tert-butoxycarbonylamino-2-phenyl-acetyl)-pyrrolidin-2-yl]-3H-imidazol-4-yl}-thieno[3,2-b]thiophen-3-yl)-phenyl]-1H-imidazol-2-yl}-pyrrolidine-1-carbonyl)-2-methyl-propyl]-carbamic acid methyl ester]",> 75000 nM,">11,202",> 454 nM,0.1 to 1 nM,,,,,,,,,,,,,,,,,
"COC(=O)N[C@H](C(=O)N1CCC[C@H]1c1nc2cc(-c3csc4c(-c5ccc(-c6cnc([C@@H]7CCCN7C(=O)[C@H](NC(=O)OC)c7ccccc7)[nH]6)cc5)csc34)ccc2[nH]1)C(C)C [Compound A169, [(S)-1-((S)-2-{6-[6-(4-{(S)-2-[1-((R)-2-methoxycarbonylamino-2-phenyl-acetyl)-pyrrolidin-2-yl]-3H-imidazol-4-yl}-phenyl)-thieno[3,2-b]thiophen-3-yl]-1H-benzoimidazol-2-yl}-pyrrolidine-1-carbonyl)-2-methyl-propyl]-carbamic acid methyl ester]",,"14,363",30 nM,< 0.1 nM,73,0.2 nM,< 0.1 nM,155,0.3 nM,0.0018 nM,1.04,310,0.7 nM,0.004 nM,1.83,10,0.02 nM,173,0.4 nM,0.003 nM,Ratio [10]: 1.57; EC50 [11]: 0.0017 nM; Ratio [11]: 1.01; Ratio [12]: 311; EC50 [12]: 0.7 nM
"COC(=O)N[C@H](C(=O)N1CCC[C@H]1c1ncc(-c2ccc(-c3csc4c(-c5ccc6[nH]c([C@@H]7CCCN7C(=O)[C@H](NC(=O)OC)c7ccccc7)nc6c5)csc34)cc2)[nH]1)C(C)C [Compound A172, [(S)-1-((S)-2-{5-[4-(6-{(S)-2-[1-((R)-2-Methoxycarbonylamino-2-phenyl-acetyl)-pyrrolidin-2-yl]-3H-benzoimidazol-5-yl}-thieno[3,2-b]thiophen-3-yl)-phenyl]-1H-imidazol-2-yl}-pyrrolidine-1-carbonyl)-2-methyl-propyl]-carbamic acid methyl ester]",,"22,328",81 nM,< 0.1 nM,63,0.2 nM,< 0.1 nM,174,0.7 nM,0.0024 nM,1.04,317,1 nM,0.006 nM,1.64,10,0.04 nM,173,0.7 nM,0.006 nM,Ratio [10]: 1.61; EC50 [11]: 0.0023 nM; Ratio [11]: 1.02; Ratio [12]: 378; EC50 [12]: 2 nM
